According to US6605589B1, “Cathepsin inhibitors in cancer treatment” (Parker Hughes Institute, priority 2000, dated 2003):

Tests used:
Format in all cases: cell-based, human
HL-60 (AML) = experiment: In vitro clonogenic assay; settings: CATI-1 10 uM, 24 hours
Experimental: (§1) In vitro clonogenic assays were carried out to determine the cytotoxic activity of the cathepsin inhibitor I (CATI-1) (Z-Phe-Gly-NHO-Bz) against cancer cells. The cancer cell lines used in the assay were U373 (glioblastoma), BT-20 (breast cancer), SQ20B (squamous cell carcinoma), RS4;11 (pro-B ALL), ALL-1 (pre-pre-B ALL), KM-3, MOLT-3 (T-ALL), JURKAT (T-ALL), K-562 (CML), HL-60 (AML), DAUDI (NHL), RAMOS (NHL) and RAJI (NHL). Each cell line was treated under several concentrations of CATI-1 for 24 hours, washed with serum free medium and resuspended in clonogenic medium having 10% fetal bovine serum and 0.9% methylcellulose. Resuspended cells were plated in duplicate 35-mm Petri dishes at 10,000 to 20,000 cells per dish and cultured at 37° C. in a humidified 5% CO2 atmosphere for 5 to 7 days.
(§2) Images of colonies in each dish were taken by a digital camera (Princeton Instruments, Inc.) linked to a microscope (Nikon Diaphot 200). Colony numbers were determined using an inverted phase microscope and percent inhibition of colony formation determined using the formula:
(§3) % inhibition=(1−(colony number in test sample/colony number in control sample))×100.

U373 (brain tumor) = experiment: In vitro clonogenic assay; settings: 24 hours
Experimental: as §1, §2, §3

ALL-1 (pre-pre B ALL) = experiment: In vitro clonogenic assay; settings: for %, inhibition / Mean no, of colonies: 24 hours
Experimental: as §1, §2, §3

DAUDI (NHL) = experiment: In vitro clonogenic assay; settings: CATI-1 10 uM, 24 hours
Experimental: as §1, §2, §3

RAJI (NHL) = experiment: In vitro clonogenic assay; settings: for %, inhibition / Mean no, of colonies: 24 hours
Experimental: as §1, §2, §3

BT-20 (breast cancer) = experiment: In vitro clonogenic assay; settings: 24 hours
Experimental: as §1, §2, §3

K-562 (CML) = experiment: In vitro clonogenic assay; settings: for %, inhibition / Mean no, of colonies: 24 hours
Experimental: as §1, §2, §3

KM-3 (pre-B ALL) = experiment: In vitro clonogenic assay; settings: 24 hours
Experimental: as §1, §2, §3

[1] = tested on: all tested cell lines, solid and blood cell; experiment: In vitro clonogenic assay, all tested cell lines; settings: JURKAT, KM3, DAUDI, RAJI (BAX deficient)
Experimental: as §1, §2
% inhibition=(1−(colony number in test sample/colony number in control sample))×100. […]

[2] = tested on: all tested cancer cell lines; experiment: Cytometric apoptosis detection assays, FIG. 2; settings: FIG. 2 (SQ-20B, HeLa, PC-3, BT-20)
Experimental: The percentages indicate the fraction of cells at an early stage of apoptosis (lower right quadrant), as measured by single MC540 fluorescence, and the fraction of cells at an advanced stage of apoptosis (upper right quadrant).
Quantitative flow cytometric apoptosis detection assays were performed on BT-20 (breast cancer), PC-3 (prostate cancer), U373 (glioblastoma), SQ20B (squamous cell carcinoma), HeLa (cervix cancer), and DU145 (prostate cancer). Just prior to the assay, one mg/ml stock solutions of MC540 (Sigma, St. Louis, Mo.) and PI (Sigma, St. Louis, Mo.) were filtered through a 0.22 μm filter and stored at 4° C. in the dark. CATI-1 treated cell lines was harvested, and 1×10^6 cells suspended and stained with 5 μg/ml MC540 and 10 μg/ml propidium iodide (PI) (Uckun et al. (1996) Science, 273: 1096-1100) at 4° C. in the dark for 24 hours. Stained cells were analyzed with a FACStar Plus flow cytometer (Becton Dickinson, San Jose, Calif.) using the 488-nm excitation from an argon laser. […] In each experiment approximately 10,000 cells were analyzed by FACS and the percentage of cells at early (MC540 fluorescence only) and advanced (dual MC540 plus PI fluorescence) stages of apoptosis obtained.

K562 cells = experiment: Flow cytometric apoptosis detection in p53 deficient cells; settings: K-562, p53 deficient
Experimental: (§4) Quantitative flow cytometric apoptosis detection assays were performed on BT-20 (breast cancer), PC-3 (prostate cancer), U373 (glioblastoma), SQ20B (squamous cell carcinoma), HeLa (cervix cancer), and DU145 (prostate cancer). Just prior to the assay, one mg/ml stock solutions of MC540 (Sigma, St. Louis, Mo.) and PI (Sigma, St. Louis, Mo.) were filtered through a 0.22 μm filter and stored at 4° C. in the dark. CATI-1 treated cell lines was harvested, and 1×10^6 cells suspended and stained with 5 μg/ml MC540 and 10 μg/ml propidium iodide (PI) (Uckun et al. (1996) Science, 273: 1096-1100) at 4° C. in the dark for 24 hours. Stained cells were analyzed with a FACStar Plus flow cytometer (Becton Dickinson, San Jose, Calif.) using the 488-nm excitation from an argon laser. MC540 and PI emissions were split with a 600-nm short pass diachronic mirror; a 575-nm band pass filter was placed in front of one photomultiplier tube to measure MC540 emission, and 635-nm band pass filter was used for PI emission. In each experiment approximately 10,000 cells were analyzed by FACS and the percentage of cells at early (MC540 fluorescence only) and advanced (dual MC540 plus PI fluorescence) stages of apoptosis obtained.
(§5) Effects of CATI-1 were investigated on a lung squamous carcinoma cell line, NCI-H520 cells, and a chronic myeloid leukemia cell line, K562 cells.

NCI-H520 cells = experiment: as above
Experimental: as §4, §5

[3] = read-out: IC50 (colony formation)

IC50 (ALL-1 (pre-pre B ALL); [3]): 6.2 µM
IC50 (RAJI (NHL); [3]): 5.8 µM
IC50 (K-562 (CML); [3]): 15.4 µM
%, inhibition (KM-3 (pre-B ALL); CATI-1 10 uM): 79.2%
Mean no, of colonies (KM-3 (pre-B ALL); CATI-1 10 uM): 578 (520, 636)
%, inhibition (KM-3 (pre-B ALL); CATI-1 20 uM): 100%
Mean no, of colonies (KM-3 (pre-B ALL); CATI-1 20 uM): 0 (0, 0)
EC50 (K562 cells): ~20 µM
EC50 (NCI-H520 cells): 55 µM
Compound: O=C(CNC(=O)[C@H](Cc1ccccc1)NC(=O)OCc1ccccc1)NOC(=O)c1ccccc1 [CATI-1, Z-Phe-Gly-NHO-Bz]
%, inhibition (HL-60 (AML)): 100%
Mean no, of colonies (HL-60 (AML)): 0 (0, 0)
%, inhibition (U373 (brain tumor); CATI-1 30 uM): 97%
Mean no, of colonies (U373 (brain tumor); CATI-1 30 uM): 76 (84, 67)
%, inhibition (U373 (brain tumor); CATI-1 50 uM): 100%
Mean no, of colonies (U373 (brain tumor); CATI-1 50 uM): 0
%, inhibition (ALL-1 (pre-pre B ALL); CATI-1 10 uM): 80.4%
Mean no, of colonies (ALL-1 (pre-pre B ALL); CATI-1 10 uM): 338 (348, 328)
%, inhibition (ALL-1 (pre-pre B ALL); CATI-1 20 uM): 99.6%
Mean no, of colonies (ALL-1 (pre-pre B ALL); CATI-1 20 uM): 7 (6, 8)
%, inhibition (ALL-1 (pre-pre B ALL); CATI-1 35 uM): 100%
Mean no, of colonies (ALL-1 (pre-pre B ALL); CATI-1 35 uM): 0 (0, 0)
%, inhibition (DAUDI (NHL)): 100%
Mean no, of colonies (DAUDI (NHL)): 0 (0, 0)
%, inhibition (RAJI (NHL); CATI-1 10 uM): 86.5%
Mean no, of colonies (RAJI (NHL); CATI-1 10 uM): 168 (124, 212)
%, inhibition (RAJI (NHL); CATI-1 20 uM): 97.4%
Mean no, of colonies (RAJI (NHL); CATI-1 20 uM): 32 (40, 24)
%, inhibition (RAJI (NHL); CATI-1 35 uM): 100%
Mean no, of colonies (RAJI (NHL); CATI-1 35 uM): 0 (0, 0)
%, inhibition (BT-20 (breast cancer); CATI-1 50 uM): 95%
Mean no, of colonies (BT-20 (breast cancer); CATI-1 50 uM): 177 (154, 200)
%, inhibition (BT-20 (breast cancer); CATI-1 100 uM): 100%
Mean no, of colonies (BT-20 (breast cancer); CATI-1 100 uM): 0
%, inhibition (K-562 (CML); CATI-1 10 uM): 19.0%
Mean no, of colonies (K-562 (CML); CATI-1 10 uM): 3806 (3980, 3632)
%, inhibition (K-562 (CML); CATI-1 20 uM): 76.9%
Mean no, of colonies (K-562 (CML); CATI-1 20 uM): 1086 (1196, 976)
%, inhibition (K-562 (CML); CATI-1 35 uM): 99.8%
Mean no, of colonies (K-562 (CML); CATI-1 35 uM): 10 (12, 8)
susceptibility of BAX deficient cell lines to CATI-1 [1]: highly susceptible
induction of apoptosis [2]: induced apoptosis
